Experimental data reported in publication PMC11868331, “A Phase 1b study of the OxPhos inhibitor ME-344 with bevacizumab in refractory metastatic colorectal cancer” (Investigational New Drugs, 2024).

What was measured:
[1] = test system: patients with ovarian and small cell lung cancer; parameters: method as in PMID 28283779; settings: ME-344 at 10 mg/kg in combination with topotecan; cited from earlier work
[2] = test system: early HER2-negative breast cancer; parameters: method as in PMID 31597662; settings: mitochondrial on-target effect; cited from earlier work
[3] = test system: panel of human cancer cells; settings: cells representative of most major organ systems; preclinical screening studies; cited from earlier work
[4] = ME-344 plasma pharmacokinetics, non-compartmental analysis; type: in vivo, human; settings: for Cmax, Mean (%CV): ME-344 10 mg/kg 60-minute infusion
Description: Serial blood samples for ME-344 pharmacokinetic analyses were collected 5 min after the end of ME-344 infusion and at 1, 2, 3, 6 and 24 h after the completion of infusion on days 1 and 15 of cycle 1, and ME-344 plasma concentrations were determined using validated analytical methods. ME-344 pharmacokinetic parameters were estimated using actual sampling times by non-compartmental analysis.

[5] = test system: PyMT breast cancer and Lewis lung carcinoma models; parameters: method as in PMID 27292634; settings: in combination with TKIs; cited from earlier work
[6] = test system: solid tumors; parameters: method as in PMID 25411085; settings: cited from earlier work

Structure (SMILES): Cc1c(O)ccc2c1OC[C@@H](c1ccc(O)cc1)[C@H]2c1ccc(O)cc1 [ME-344]
- tolerability [1]: well tolerated
- succinate dehydrogenase and HIF1α staining [2]: decrease
- antiproliferative activity [3]: broad antiproliferative activity
- AUCinf, Mean (%CV) ([4]; Cycle 1 Day 1 (n = 17)): 23.0 (34%) µg×h/mL
- AUClast, Mean (%CV) ([4]; Cycle 1 Day 1 (n = 17)): 22.6 (34%) µg×h/mL
- Tmax, median (range) ([4]; Cycle 1 Day 1 (n = 17)): 1.08 [1.03 – 1.33] hours
- Cmax, Mean (%CV) ([4]; Cycle 1 Day 1 (n = 17)): 12.60 (42%) µg/mL
- AUCinf, Mean (%CV) ([4]; Cycle 1 Day 15 (n = 15)): 23.7 (38%) ^A µg×h/mL
- AUClast, Mean (%CV) ([4]; Cycle 1 Day 15 (n = 15)): 22.4 (35%) ^A µg×h/mL
- Half-life (terminal phase t1/2), Mean (%CV) ([4]; Cycle 1 Day 15 (n = 15)): 5.1 (38%) ^A h
- Tmax, median (range) ([4]; Cycle 1 Day 15 (n = 18)): 1.17 [1.03 – 2.23] hours
- Cmax, Mean (%CV) ([4]; Cycle 1 Day 15 (n = 18)): 11.83 (47%) µg/mL
- pre-dose plasma concentrations ([4]; day 15): negligible
- tumor control [5]: synergistic tumor control
- dose limiting toxicity ([6]; at higher doses than 10 mg/kg): peripheral neuropathy
- recommended phase 2 dose ([6]; intravenously (IV) once weekly for 3 weeks in a 28-day cycle): 10 mg/kg
